The structures appear in SMILES notation. Numbered stars: 1 amine (or outer) side, 2 acyl side, 3 side chain; on linkers, the order of the positions; unused ones are H or OH. Square brackets hold non-standard residues; d marks the D form. Side chains are listed from the residue outwards. Peptide text beside a SMILES is read from it. * marks the point of attachment. C16 diacid = O=C(O)CCCCCCCCCCCCCCC(=O)*; γGlu = O=C(O)[C@H](CCC(=O)[*:2])N[*:1]; Palmitoyl = CCCCCCCCCCCCCCCC(=O)*; Aib = CC(C)(N)C(=O)O

The target in one test is T1, human GIP R (Homo sapiens, UniProt P48546).
T1 construct: expressed in transfected cells
T1 sequence (P48546 22-466): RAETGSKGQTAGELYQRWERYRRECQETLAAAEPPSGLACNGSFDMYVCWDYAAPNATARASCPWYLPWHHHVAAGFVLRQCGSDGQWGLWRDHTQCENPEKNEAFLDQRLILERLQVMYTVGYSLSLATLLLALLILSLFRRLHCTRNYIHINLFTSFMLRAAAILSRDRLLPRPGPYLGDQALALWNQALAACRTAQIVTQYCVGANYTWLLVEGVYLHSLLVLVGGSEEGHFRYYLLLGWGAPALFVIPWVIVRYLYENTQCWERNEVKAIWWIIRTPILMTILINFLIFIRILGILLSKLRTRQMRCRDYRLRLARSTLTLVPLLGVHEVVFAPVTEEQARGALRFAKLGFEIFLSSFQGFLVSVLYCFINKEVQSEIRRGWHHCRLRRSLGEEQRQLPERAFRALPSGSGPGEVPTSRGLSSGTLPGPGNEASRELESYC
The test can be described thus: Human GIP receptor (GIP R) activity assay, cAMP induction (AlphaScreen cAMP kit). Format: cell-based.
Details: not given
The procedure:
Human GIP Receptor (GIP R) and GLP-1 Receptor (GLP-1 R) Activity Assay
In vitro effects of peptide conjugates of the invention were assessed by measuring the induction of cAMP following stimulation of the respective receptor by GIP, GLP1 or analogues of these, as outlined in the invention, using the AlphaSceen® cAMP kit from Perkin-Elmer according to instructions. Briefly. HEK293 cells expressing the human GIP R or GLP-1 R (stable cell lines generated through transfection of the cDNA for human GIP R or GLP-1 and selection of stable clones) were seeded at 30,000 cells/well in 96-well microtiter plates coated with 0.01% poly-L-lysine, and grown for 1 day in culture in 200 μl growth medium (DMEM, 10% FCS, Penicillin (100 IU/ml), Streptomycin (100 μg/ml)). On the day of analysis, growth medium was removed and the cells were washed once with […] Tyrode's buffer (Tyrode's Salts (9.6 g/1), 10 mM HEPES, pH 7.4). […] The Assay buffer was removed and cells are lysed in 80 μl Lysis buffer (0.1% w/v BSA, 5 mM HEPES, 0.3% v/v Tween-20) per well. From each well 10 μl lysed cells was transferred to a 384-well plate and mixed with 15 μl bead-mix (1 Unit/15 μl anti-cAMP Acceptor Beads, 1 Unit/15 μl Donor Beads, and 1 Unit/15 μl Biotinylated cAMP in Assay Buffer). The plates were mixed and incubated in the dark for an hour at room temperature before measuring using an Envision™ plate reader (Perkin-Elmer).
For orientation: Bead proximity is the source of the signal in Alpha formats.
As a reminder, the EC50 is the concentration that produces a half-maximal response. `CC[C@H](C)[C@H](NC(=O)[C@H](CCCCN)NC(=O)[C@H](CCC(=O)O)NC(=O)[C@H](CC(C)C)NC(=O)[C@H](Cc1ccc(O)cc1)NC(=O)[C@@H](NC(=O)[C@H](CO)NC(=O)[C@H](Cc1ccc(O)cc1)NC(=O)[C@H](CC(=O)O)NC(=O)[C@H](CO)NC(=O)[C@@H](NC(=O)[C@H](Cc1ccccc1)NC(=O)[C@@H](NC(=O)CNC(=O)[C@H](CCC(=O)O)NC(=O)C(C)(C)NC(=O)[C@@H](N)Cc1ccc(O)cc1)[C@@H](C)O)[C@@H](C)CC)[C@@H](C)CC)C(=O)N[C@@H](C)C(=O)N[C@@H](C)C(=O)N[C@@H](CCCCN)C(=O)N[C@@H](CCC(=O)O)C(=O)N[C@@H](Cc1ccccc1)C(=O)N[C@H](C(=O)N[C@@H](CC(N)=O)C(=O)N[C@@H](Cc1c[nH]c2ccccc12)C(=O)N[C@@H](CC(C)C)C(=O)N[C@@H](CC(C)C)C(=O)N[C@@H](C)C(=O)N[C@@H](CCC(N)=O)C(=O)N[C@@H](CCCCN)C(N)=O)C(C)C` [Compound 4] (H-Y[Aib]EGTFISDYSIYLEKIAAKEFVNWLLAQK-NH2) yielded an EC50 of 0.022 nM.

The same test, now with this note: HEK293 cells expressing the human GIP R; cAMP induction, 15 min at 37° C.; average values of multiple determinations; read-out: GIP R (EC50 in nM).
For `CCCCCCCCCCCCCCCC(=O)N[C@@H](CCC(=O)NCCCC[C@H](NC(=O)[C@H](CO)NC(=O)[C@H](CC(=O)O)NC(=O)[C@H](CC(C)C)NC(=O)[C@H](Cc1ccc(O)cc1)NC(=O)[C@@H](NC(=O)[C@H](CO)NC(=O)[C@H](Cc1ccc(O)cc1)NC(=O)[C@H](CC(=O)O)NC(=O)[C@H](CO)NC(=O)[C@@H](NC(=O)[C@H](Cc1ccccc1)NC(=O)[C@@H](NC(=O)CNC(=O)[C@H](CCC(=O)O)NC(=O)C(C)(C)NC(=O)[C@@H](N)Cc1ccc(O)cc1)[C@@H](C)O)[C@@H](C)O)[C@@H](C)CC)C(=O)N[C@@H](C)C(=O)N[C@@H](C)C(=O)N[C@@H](Cc1c[nH]cn1)C(=O)N[C@@H](CC(=O)O)C(=O)N[C@@H](Cc1ccccc1)C(=O)N[C@H](C(=O)N[C@@H](CCC(=O)O)C(=O)N[C@@H](Cc1c[nH]c2ccccc12)C(=O)N[C@@H](CC(C)C)C(=O)N[C@@H](CC(C)C)C(=O)N[C@@H](CCCNC(=N)N)C(=O)N[C@@H](C)C(N)=O)C(C)C)C(=O)O` [Compound 47] (H-Y[Aib]EGTFTSDYSIYLDSK([γGlu-Palmitoyl])AAHDFVEWLLRA-NH2), the EC50 was determined as 0.096 nM.

As for `CC[C@H](C)[C@H](NC(=O)[C@H](CO)NC(=O)[C@H](Cc1ccc(O)cc1)NC(=O)[C@H](CC(=O)O)NC(=O)[C@H](CO)NC(=O)[C@@H](NC(=O)[C@H](Cc1ccccc1)NC(=O)[C@@H](NC(=O)CNC(=O)[C@H](CCC(=O)O)NC(=O)C(C)(C)NC(=O)[C@@H](N)Cc1ccc(O)cc1)[C@@H](C)O)[C@@H](C)O)C(=O)N[C@@H](Cc1ccc(O)cc1)C(=O)N[C@@H](CC(C)C)C(=O)N[C@@H](CC(=O)O)C(=O)N[C@@H](CCCCN)C(=O)N[C@@H](CCCCN)C(=O)N[C@@H](C)C(=O)N[C@@H](CCC(N)=O)C(=O)N[C@@H](CCCCN)C(=O)N[C@@H](CCC(=O)O)C(=O)N[C@@H](Cc1ccccc1)C(=O)N[C@H](C(=O)N[C@@H](CC(N)=O)C(=O)N[C@@H](Cc1c[nH]c2ccccc12)C(=O)N[C@@H](CC(C)C)C(=O)N[C@@H](CC(C)C)C(=O)N[C@@H](C)C(=O)NC(C)(C)C(=O)N[C@@H](CCCCN)C(N)=O)C(C)C` [Compound 19] (H-Y[Aib]EGTFTSDYSIYLDKKAQKEFVNWLLA[Aib]K-NH2), the EC50 turned out to be 0.015 nM.

For the molecule `CC[C@H](C)[C@H](NC(=O)[C@H](CO)NC(=O)[C@H](Cc1ccc(O)cc1)NC(=O)[C@H](CC(=O)O)NC(=O)[C@H](CO)NC(=O)[C@@H](NC(=O)[C@H](Cc1ccccc1)NC(=O)[C@@H](NC(=O)CNC(=O)[C@H](CCC(=O)O)NC(=O)C(C)(C)NC(=O)[C@@H](N)Cc1ccc(O)cc1)[C@@H](C)O)[C@@H](C)O)C(=O)N[C@@H](Cc1ccc(O)cc1)C(=O)N[C@@H](CC(C)C)C(=O)N[C@@H](CC(=O)O)C(=O)N[C@@H](CCCCN)C(=O)N[C@@H](CCCCNC(=O)CC[C@H](NC(=O)CCCCCCCCCCCCCCC(=O)O)C(=O)O)C(=O)N[C@@H](C)C(=O)N[C@@H](CCC(N)=O)C(=O)N[C@@H](CCCNC(=N)N)C(=O)N[C@@H](C)C(=O)N[C@@H](Cc1ccccc1)C(=O)N[C@H](C(=O)N[C@@H](CC(N)=O)C(=O)N[C@@H](Cc1c[nH]c2ccccc12)C(=O)N[C@@H](CC(C)C)C(=O)N[C@@H](CC(C)C)C(=O)N[C@@H](C)C(=O)NC(C)(C)C(=O)N[C@@H](CCCCN)C(N)=O)C(C)C` [Compound 31] (H-Y[Aib]EGTFTSDYSIYLDKK([γGlu-C16 diacid])AQRAFVNWLLA[Aib]K-NH2), the concentration for a half-maximal effect (EC50) was determined as 0.022 nM.

With `CCCCCCCCCCCCCCCC(=O)N[C@@H](CCC(=O)NCCCC[C@H](NC(=O)[C@H](CCC(=O)O)NC(=O)[C@H](CC(=O)O)NC(=O)[C@H](CC(C)C)NC(=O)[C@H](Cc1ccc(O)cc1)NC(=O)[C@@H](NC(=O)[C@H](CO)NC(=O)[C@H](Cc1ccc(O)cc1)NC(=O)[C@H](CC(=O)O)NC(=O)[C@H](CO)NC(=O)[C@@H](NC(=O)[C@H](Cc1ccccc1)NC(=O)[C@@H](NC(=O)CNC(=O)[C@H](CCC(=O)O)NC(=O)C(C)(C)NC(=O)[C@@H](N)Cc1ccc(O)cc1)[C@@H](C)O)[C@@H](C)O)[C@@H](C)CC)C(=O)N[C@@H](C)C(=O)N[C@@H](C)C(=O)N[C@@H](CCCCN)C(=O)N[C@@H](CC(=O)O)C(=O)N[C@@H](Cc1ccccc1)C(=O)N[C@H](C(=O)N[C@@H](CCC(=O)O)C(=O)N[C@@H](Cc1c[nH]c2ccccc12)C(=O)N[C@@H](CC(C)C)C(=O)N[C@@H](CCC(=O)O)C(=O)N[C@@H](CO)C(=O)N[C@@H](C)C(N)=O)[C@@H](C)CC)C(=O)O` [Compound 50] (H-Y[Aib]EGTFTSDYSIYLDEK([γGlu-Palmitoyl])AAKDFIEWLESA-NH2), the EC50 stood at 0.053 nM.

As to `CC[C@H](C)[C@H](NC(=O)[C@H](CO)NC(=O)[C@H](Cc1ccc(O)cc1)NC(=O)[C@H](CC(=O)O)NC(=O)[C@H](CO)NC(=O)[C@@H](NC(=O)[C@H](Cc1ccccc1)NC(=O)[C@@H](NC(=O)CNC(=O)[C@H](CCC(=O)O)NC(=O)C(C)(C)NC(=O)[C@@H](N)Cc1ccc(O)cc1)[C@@H](C)O)[C@@H](C)O)C(=O)N[C@@H](Cc1ccc(O)cc1)C(=O)N[C@@H](CC(C)C)C(=O)N[C@@H](CC(=O)O)C(=O)N[C@@H](CCCCN)C(=O)N[C@@H](CCCCN)C(=O)N[C@@H](C)C(=O)N[C@@H](CCC(N)=O)C(=O)N[C@@H](CCCNC(=N)N)C(=O)N[C@@H](C)C(=O)N[C@@H](Cc1ccccc1)C(=O)N[C@H](C(=O)N[C@@H](CC(N)=O)C(=O)N[C@@H](Cc1c[nH]c2ccccc12)C(=O)N[C@@H](CC(C)C)C(=O)N[C@@H](CC(C)C)C(=O)NC(C)(C)C(=O)N[C@@H](CCCCN)C(N)=O)C(C)C` [Compound 24] (H-Y[Aib]EGTFTSDYSIYLDKKAQRAFVNWLL[Aib]K-NH2), the EC50 was 0.096 nM.

For the molecule `CC[C@H](C)[C@H](NC(=O)[C@H](CO)NC(=O)[C@H](Cc1ccc(O)cc1)NC(=O)[C@H](CC(=O)O)NC(=O)[C@H](CO)NC(=O)[C@@H](NC(=O)[C@H](Cc1ccccc1)NC(=O)[C@@H](NC(=O)CNC(=O)[C@H](CCC(=O)O)NC(=O)C(C)(C)NC(=O)[C@@H](N)Cc1ccc(O)cc1)[C@@H](C)O)[C@@H](C)O)C(=O)N[C@@H](Cc1ccc(O)cc1)C(=O)N[C@@H](CO)C(=O)N[C@@H](CC(=O)O)C(=O)N[C@@H](CCCCN)C(=O)N[C@@H](CCCCN)C(=O)N[C@@H](C)C(=O)N[C@@H](CCC(N)=O)C(=O)N[C@@H](CCCNC(=N)N)C(=O)N[C@@H](C)C(=O)N[C@@H](Cc1ccccc1)C(=O)N[C@H](C(=O)N[C@@H](CC(N)=O)C(=O)N[C@@H](Cc1c[nH]c2ccccc12)C(=O)N[C@@H](CC(C)C)C(=O)N[C@@H](CC(C)C)C(=O)N[C@@H](C)C(=O)NC(C)(C)C(=O)N[C@@H](CCCCN)C(N)=O)C(C)C` [Compound 13] (H-Y[Aib]EGTFTSDYSIYSDKKAQRAFVNWLLA[Aib]K-NH2), the EC50 worked out at 0.14 nM.

The record behind these values is patent publication US10100097B2, “GIP-GLP-1 dual agonist compounds and methods” (Zealand Pharma A/S, priority 2012, dated 2018).
